For five molecules, AC50 and IC50 results are on record in ChEMBL document CHEMBL1201862, “PubChem BioAssay data set” (2004).

Active and inactive are the calls of the source.

Experiment [1] in a line: HepG2 cell cytotoxicity, dose response, cytotoxicity control, dry powder samples (AID 720568). It counts as functional, cell-based.
Experiment [2] deals with T1, Replicative DNA helicase DnaB (Mycobacterium tuberculosis, UniProt P9WMR3).
T1 sequence (P9WMR3 whole entry): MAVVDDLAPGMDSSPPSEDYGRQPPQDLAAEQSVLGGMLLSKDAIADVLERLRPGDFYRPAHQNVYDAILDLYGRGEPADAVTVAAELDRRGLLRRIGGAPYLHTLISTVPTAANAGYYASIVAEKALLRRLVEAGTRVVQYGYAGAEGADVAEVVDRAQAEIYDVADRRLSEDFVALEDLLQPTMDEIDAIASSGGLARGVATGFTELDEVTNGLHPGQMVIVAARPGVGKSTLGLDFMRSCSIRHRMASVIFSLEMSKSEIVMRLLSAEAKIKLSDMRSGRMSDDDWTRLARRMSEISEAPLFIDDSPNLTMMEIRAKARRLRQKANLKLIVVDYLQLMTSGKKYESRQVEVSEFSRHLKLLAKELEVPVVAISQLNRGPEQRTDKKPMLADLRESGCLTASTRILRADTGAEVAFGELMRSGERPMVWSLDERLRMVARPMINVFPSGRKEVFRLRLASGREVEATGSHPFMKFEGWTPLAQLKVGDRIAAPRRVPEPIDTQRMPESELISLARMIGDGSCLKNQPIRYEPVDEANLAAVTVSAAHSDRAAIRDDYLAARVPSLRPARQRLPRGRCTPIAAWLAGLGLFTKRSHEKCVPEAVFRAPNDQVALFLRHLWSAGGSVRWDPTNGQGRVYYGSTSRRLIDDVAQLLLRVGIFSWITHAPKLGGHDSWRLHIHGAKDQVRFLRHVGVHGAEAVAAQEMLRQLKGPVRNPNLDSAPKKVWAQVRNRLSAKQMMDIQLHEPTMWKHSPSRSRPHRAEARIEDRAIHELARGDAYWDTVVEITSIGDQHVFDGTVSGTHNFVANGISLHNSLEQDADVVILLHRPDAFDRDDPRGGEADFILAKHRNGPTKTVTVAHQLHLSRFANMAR
The experiment in a line: DnaB intein splicing inhibitors, dose response, biochemical, cell-free fluorescence (AID 449749). It counts as functional.

For the next experiment, the target named is T2, ORF 73 (Human herpesvirus 8, UniProt O40947).
T2 sequence (O40947 whole entry): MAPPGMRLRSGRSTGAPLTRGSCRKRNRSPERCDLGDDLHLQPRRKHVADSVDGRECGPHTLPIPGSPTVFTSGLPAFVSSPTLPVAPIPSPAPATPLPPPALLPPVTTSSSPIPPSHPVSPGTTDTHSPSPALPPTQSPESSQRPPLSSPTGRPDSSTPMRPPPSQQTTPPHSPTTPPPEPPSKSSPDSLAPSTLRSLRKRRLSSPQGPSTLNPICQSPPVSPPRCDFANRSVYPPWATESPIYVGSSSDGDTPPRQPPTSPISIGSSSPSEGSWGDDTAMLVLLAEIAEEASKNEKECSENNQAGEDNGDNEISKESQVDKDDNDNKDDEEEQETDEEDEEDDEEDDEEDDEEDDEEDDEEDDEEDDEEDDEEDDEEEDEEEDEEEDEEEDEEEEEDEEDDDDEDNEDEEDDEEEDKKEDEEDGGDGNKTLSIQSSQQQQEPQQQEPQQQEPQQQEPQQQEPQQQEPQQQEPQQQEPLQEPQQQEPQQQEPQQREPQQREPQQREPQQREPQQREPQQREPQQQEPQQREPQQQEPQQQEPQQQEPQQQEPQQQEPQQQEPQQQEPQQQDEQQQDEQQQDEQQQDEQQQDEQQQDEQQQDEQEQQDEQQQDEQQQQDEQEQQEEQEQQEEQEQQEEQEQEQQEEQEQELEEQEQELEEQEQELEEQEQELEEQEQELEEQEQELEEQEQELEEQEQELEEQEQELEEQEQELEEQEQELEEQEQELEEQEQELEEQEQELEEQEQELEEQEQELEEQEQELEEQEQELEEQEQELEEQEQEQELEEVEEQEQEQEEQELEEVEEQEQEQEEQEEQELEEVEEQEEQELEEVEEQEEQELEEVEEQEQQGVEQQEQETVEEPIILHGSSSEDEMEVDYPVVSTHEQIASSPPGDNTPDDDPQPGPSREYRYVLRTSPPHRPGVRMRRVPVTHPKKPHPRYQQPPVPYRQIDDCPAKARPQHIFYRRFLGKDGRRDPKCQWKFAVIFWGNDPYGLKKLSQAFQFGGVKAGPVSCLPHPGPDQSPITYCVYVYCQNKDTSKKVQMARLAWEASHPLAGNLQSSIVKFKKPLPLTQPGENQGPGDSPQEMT
The experiment in a line: inhibitors of C-LANA binding to LBS DNA, dose response, biochemical, fluorescence polarization, cherry-picked samples (AID 504725).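 Further: fluorescence polarization of a labeled DNA duplex reporting LANA DNA binding; potency is for inhibitors that block LANA binding to the DNA.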 The arrangement: species or system Human gammaherpesvirus 8. In general terms: In fluorescence polarisation assays a small probe gives low polarisation when free and higher when bound to something large.

The target in experiment [3] is Polyadenylate-binding protein 1 (Homo sapiens, UniProt P11940). The experiment in a line: PABP1 MLLE–PAM2 interaction inhibitors, dose response, miRNA deadenylation inhibitor project, biochemical, fluorescence polarization, Cy5-PAM2 peptide, secondary (AID 602260). The conditions noted are these: read-out: IC50_Mean. It counts as functional.
Chain of Polyadenylate-binding protein 1 (P11940 whole entry): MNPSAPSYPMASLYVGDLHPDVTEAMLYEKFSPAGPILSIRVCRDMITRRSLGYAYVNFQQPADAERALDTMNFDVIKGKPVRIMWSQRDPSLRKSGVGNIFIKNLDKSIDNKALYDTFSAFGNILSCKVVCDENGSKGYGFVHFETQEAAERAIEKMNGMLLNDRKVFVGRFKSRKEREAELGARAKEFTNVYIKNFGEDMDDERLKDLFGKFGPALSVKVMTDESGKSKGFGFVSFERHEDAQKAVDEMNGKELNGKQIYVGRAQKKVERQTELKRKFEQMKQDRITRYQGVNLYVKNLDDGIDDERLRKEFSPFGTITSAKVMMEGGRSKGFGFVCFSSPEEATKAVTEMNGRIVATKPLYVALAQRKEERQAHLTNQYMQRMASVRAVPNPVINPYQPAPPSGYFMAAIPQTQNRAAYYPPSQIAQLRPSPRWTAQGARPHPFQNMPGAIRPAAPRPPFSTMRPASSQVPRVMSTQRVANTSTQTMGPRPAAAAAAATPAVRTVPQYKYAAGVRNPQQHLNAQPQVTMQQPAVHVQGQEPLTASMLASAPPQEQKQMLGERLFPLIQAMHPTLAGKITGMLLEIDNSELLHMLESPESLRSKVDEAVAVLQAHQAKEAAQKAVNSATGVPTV
In another experiment the target is T3, Caspase-6 (Homo sapiens, UniProt P55212).
T3 sequence (P55212 whole entry): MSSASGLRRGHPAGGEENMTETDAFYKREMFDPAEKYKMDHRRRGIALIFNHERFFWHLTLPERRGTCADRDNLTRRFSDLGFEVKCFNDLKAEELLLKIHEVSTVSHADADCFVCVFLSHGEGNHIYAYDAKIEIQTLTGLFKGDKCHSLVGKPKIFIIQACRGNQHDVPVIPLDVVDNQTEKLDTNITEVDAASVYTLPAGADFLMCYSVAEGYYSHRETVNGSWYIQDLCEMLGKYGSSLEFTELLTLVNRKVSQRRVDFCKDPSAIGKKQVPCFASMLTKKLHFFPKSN
Description: human caspase-6 inhibitors, dose response, biochemical, VEID-R110 fluorescence, cherry-pick (AID 720632).

The target in the next experiment is Caspase-8 (Homo sapiens, UniProt Q14790). The experiment in a line: caspase-8 inhibition counter-screen, dose response, selectivity assay for caspase-6 inhibitor project, biochemical, Z-IETD-R110 fluorescence, cherry-picked samples (AID 743294). In general terms: Counterscreens check selectivity or assay interference.
Chain of Caspase-8 (Q14790 217-374 limits assumed): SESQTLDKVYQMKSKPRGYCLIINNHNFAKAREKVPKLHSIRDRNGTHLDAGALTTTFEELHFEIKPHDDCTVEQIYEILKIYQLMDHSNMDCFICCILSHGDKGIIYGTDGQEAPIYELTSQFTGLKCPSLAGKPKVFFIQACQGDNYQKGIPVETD
Chain of Caspase-8 (Q14790 385-479 limits assumed): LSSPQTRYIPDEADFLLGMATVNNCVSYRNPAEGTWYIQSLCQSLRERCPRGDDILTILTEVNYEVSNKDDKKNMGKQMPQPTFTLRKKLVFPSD
In experiment [4] the target is Tyrosyl-DNA phosphodiesterase 2 (Homo sapiens, UniProt O95551). The experiment in a line: human TDP2 enzyme inhibitors, dose response, biochemical, epi absorbance, IC50 (AID 743297).
Chain of Tyrosyl-DNA phosphodiesterase 2 (O95551 whole entry): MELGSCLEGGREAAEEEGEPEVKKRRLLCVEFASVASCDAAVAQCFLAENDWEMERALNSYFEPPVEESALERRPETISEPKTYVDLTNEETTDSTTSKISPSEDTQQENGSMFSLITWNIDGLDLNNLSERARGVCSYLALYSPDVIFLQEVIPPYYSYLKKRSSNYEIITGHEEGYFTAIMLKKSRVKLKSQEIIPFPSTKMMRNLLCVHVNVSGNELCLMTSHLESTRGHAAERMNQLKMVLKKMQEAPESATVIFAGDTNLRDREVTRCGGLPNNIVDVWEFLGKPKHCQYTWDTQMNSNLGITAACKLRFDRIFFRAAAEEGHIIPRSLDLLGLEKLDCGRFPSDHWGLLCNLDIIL
The target of experiment [5] is T4, Sentrin-specific protease 8 (Homo sapiens, UniProt Q96LD8).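 Further: kinetic enzyme assay of SENP8 cleaving a Nedd8 protein substrate, dose-response confirmation of screening hits.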
T4 sequence (Q96LD8 whole entry): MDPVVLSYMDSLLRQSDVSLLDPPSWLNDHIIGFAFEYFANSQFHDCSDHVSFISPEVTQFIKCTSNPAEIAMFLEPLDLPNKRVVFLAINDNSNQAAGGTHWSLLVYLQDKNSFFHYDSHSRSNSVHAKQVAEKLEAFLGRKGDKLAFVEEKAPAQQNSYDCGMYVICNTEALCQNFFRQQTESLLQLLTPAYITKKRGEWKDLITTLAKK
It counts as functional.

On to `CCN(CC)CCOc1ccc2c(c1)C(=NNC(=O)c1ccccn1)c1cc(OCCN(CC)CC)ccc1-2`, for which, in experiment [1], the AC50 was 6.14 µM (active).
For `O=C(NC1=C(Nc2ccc(F)cc2)C(=O)c2ccccc2C1=O)c1ccc(Cl)cc1`, the AC50 in experiment [2] is 11.8 µM (active).
As to `O=C(O)c1ccc2c(c1)[C@@H]1C=CC[C@@H]1[C@H](c1ccccn1)N2`, the AC50 on ORF 73 is 21.7 µM (active). Besides, the IC50 in experiment [3] is > 66 µM (inactive).
On to `Oc1nc(Nc2ccc(F)cc2)cc2ccccc12`, for which the AC50 was 0.942 µM (active) at Caspase-6 and 2.48 µM (active) on Caspase-8. Also, the IC50 in experiment [4] is 7.66 µM (active).
As for `CN(C)c1cc(N/N=C\c2ccccc2)nc(N(C)C)n1`, the IC50 in experiment [5] is 0.661 µM (active).

For orientation: AC50 means the concentration giving half of the maximal activity seen.
